Patent US10214507B2, “Carbazole-containing amides, carbamates, and ureas as cryptochrome modulators” (Reset Therapeutics, Inc., priority 2014, dated 2019)

How the values were obtained:
C57/Bl6J DIO mice [1] = assay: 7 day dosing in diet-induced obesity (DIO) mouse model; assay type: in vivo
Text: (§1) Male C57/Bl6J DIO mice were obtained from The Jackson Laboratory (Sacramento, Calif.). […] Animals were accustomed to these conditions for at least 2 weeks before experimentation and used at approximately 24 weeks of age.
(§2) Significance was accepted when p<0.05.

C57/Bl6J DIO mice [2] = assay: Increasing dosages of Compound 72 for 7 days in diet-induced obesity mouse model; assay type: in vivo; conditions: positive control 30 mg/kg QD PO 7 days
Text: as §1, §2
Male C57/Bl6J DIO mice were obtained from The Jackson Laboratory (Sacramento, Calif.). […] Animals were accustomed to these conditions for at least 2 weeks before experimentation and used at approximately 26 weeks of age.

[3] = tested on: db/db mouse model of type II diabetes; conditions: db/db mice, positive control 30 mg/kg QD PO 7 days
Procedure: Male db/db mice homozygous for Lepr^db (6 weeks of age), were obtained from The Jackson Laboratory (Bar Harbor, Me.). Mice were group housed on a normal light/dark cycle (lights on: 07:00-19:00 h) with ad libitum access to a standard pelleted mouse diet and water. Animals were accustomed to these conditions for 2 weeks before experimentation. […] At 10:30 pm on the evening prior to endpoint measurement, mice were placed into clean cages and given free access to water, but not food for a period of 12 hours before the fasting blood glucose measurement. On the final day of the study, animals were dosed as normal, and then underwent a tail cut injury 2 hours prior to measurement of fasting blood glucose, to allow recovery from any stress the procedure might cause. Fasting blood glucose (FBG) was assessed from the animals at 10:30 am using an AlphaTRAK glucometer (Abbott Laboratories, USA). Following the FBG measurement blood was collected from each mouse, using a tail milking technique, into a capillary tube. Capillary tubes were centrifuged in a hematocrit (BD Triac 0200) and the resultant plasma transferred to an eppendorff. This sample, labelled as t=Ohr, was frozen at −80° C. to allow later measurement of insulin. At 11:30 am each animal was dosed with 0.5 g/kg of glucose, then blood glucose was measured at t=15, 30, 60, 90 and 120 minutes after glucose load. At the end of the OGTT blood was collected for a t=2 hr insulin determination as described above.
Fasting blood glucose values and glucose measurements taken during the OGTT were averaged and graphed (GraphPad Prism, GraphPad Software, La Jolla, Calif.). The area under the curve (AUC) was calculated for each individual animal. Plasma insulin levels were determined using an Ultrasensitive Insulin ELISA (ALPCO, Salem, N.H.). […] Insulin data was also represented in GraphPad Prism format. Statistical analysis was performed using one-way ANOVA followed by the appropriate post-test. Significance was accepted when p<0.05. Data are presented as mean and S.E.M.

## CN(CCOc1ccc(CC2SC(=O)NC2=O)cc1)c1ccccn1 (stereo not drawn) [Rosiglitazone, reference compound]
C57/Bl6J DIO mice [1]; 30 mg/kg PO 7 days
  HOMA-IR: 24.60+/−1.42 units
  plasma insulin at t=0: 2.70 ± 0.12 ng/mL
  plasma insulin at t=2 hr: 2.30 ± 0.06 ng/mL
C57/Bl6J DIO mice [1]; positive control 30 mg/kg PO 7 days
  fasting blood glucose: 153.9 ± 5.05 mg/dL
C57/Bl6J DIO mice [2]
  fasting blood glucose: 161.1 ± 8.06 mg/dL
[3]
  HOMA-IR: 50.58+/−3.52 units
  fasting blood glucose: 280.4 ± 13.66 mg/dL
  plasma insulin at t=0: 3.05 ± 0.14 ng/mL
  plasma insulin at t=2 hr: 2.28 ± 0.08 ng/mL
